Experimental data: US7074334B2, “Method for determining the binding behavior of ligands which specifically bind to target molecules” (priority 2001, dated 2006)
Where “and” joins values, the source holds several entries; their conditions need not be identical. Equal entries are not always repeated.

Columns and labels:
D2-type receptors = molecular target: T1, D2-type receptors (Sus scrofa, UniProt F1SM69); test: MS binding assay with marker spiroperidol in striatal membrane fraction, unbound marker quantified; design: species or system porcine
T1 construct: As native material which contains both D1 and D2 receptors in sufficient amount; from tissue; host or cells: porcine brain striatum, membrane fraction

D1-type receptors = D1-type receptors (Sus scrofa, UniProt P50130); conditions: test substance 1 μmol/L
Sequence of D1-type receptors (P50130 whole entry): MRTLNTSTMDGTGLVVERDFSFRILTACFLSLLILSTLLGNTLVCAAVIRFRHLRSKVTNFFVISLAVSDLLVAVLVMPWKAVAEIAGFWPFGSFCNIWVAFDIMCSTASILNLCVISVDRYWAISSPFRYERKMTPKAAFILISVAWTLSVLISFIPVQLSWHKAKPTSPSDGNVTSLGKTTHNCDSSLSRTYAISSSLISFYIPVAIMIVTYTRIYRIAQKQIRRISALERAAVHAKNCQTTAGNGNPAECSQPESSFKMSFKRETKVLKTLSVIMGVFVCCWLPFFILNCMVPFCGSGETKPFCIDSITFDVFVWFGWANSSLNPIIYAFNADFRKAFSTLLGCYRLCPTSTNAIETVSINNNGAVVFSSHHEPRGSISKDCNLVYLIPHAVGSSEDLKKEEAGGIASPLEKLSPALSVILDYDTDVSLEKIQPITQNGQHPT

T1 sequence (F1SM69 1-443): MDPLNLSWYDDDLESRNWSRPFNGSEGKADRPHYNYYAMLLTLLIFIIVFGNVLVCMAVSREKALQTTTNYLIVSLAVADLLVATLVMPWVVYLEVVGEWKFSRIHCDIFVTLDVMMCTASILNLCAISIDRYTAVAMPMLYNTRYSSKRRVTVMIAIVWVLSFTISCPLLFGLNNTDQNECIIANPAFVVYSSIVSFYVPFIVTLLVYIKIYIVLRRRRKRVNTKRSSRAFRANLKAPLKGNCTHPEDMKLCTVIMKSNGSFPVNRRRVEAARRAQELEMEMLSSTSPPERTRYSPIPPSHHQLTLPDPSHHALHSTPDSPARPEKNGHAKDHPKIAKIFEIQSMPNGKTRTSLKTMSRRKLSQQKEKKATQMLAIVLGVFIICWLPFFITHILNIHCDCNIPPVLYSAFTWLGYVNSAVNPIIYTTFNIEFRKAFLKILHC

Structure (SMILES)	concentration of unbound marker spiroperidol (D2-type receptors)	inhibition of the specific binding of the marker spiroperidol to D2-type receptors (D2-type receptors; test substance 1 μmol/L)	inhibition of the specific binding of the marker SCH23390 to D1-type receptors (D1-type receptors)
O=C(CCCN1CCC2(CC1)C(=O)NCN2c1ccccc1)c1ccc(F)cc1 [spiroperidol]	1.93 nmol/L and 2.75 nmol/L and 2.78 nmol/L and 2.29 nmol/L and 1.89 nmol/L		
COC(=O)c1ccccc1 [methyl benzoate]		not capable of inhibiting	none is capable
